# Reference: publication PMC3392440 (2012)
# Tests used:
# TlpB [1] = target: TlpB (Helicobacter pylori, UniProt B6JPK4); assay: crystal structure; format: binding
# TlpB [2] = target: TlpB (Helicobacter pylori, UniProt B6JPK4, Y137F); assay: colorimetric assay of co-purified urea; format: binding
# [3] = target: TlpB periplasmic domain, residues 33-211 (TlpBpp), H. pylori strain SS1 (Helicobacter pylori strain SS1); assay: crystal structure
molecule,measurement,setting,value
CC(N)=O [acetamide],crystal structure (1.40 Å); CD thermal melt,TlpB [1],TlpBpp with acetamide bound is 3UB7
NC(N)=O [urea],% bound urea,TlpB [2],11 % bound urea
"TlpB periplasmic domain, residues 33-211 (TlpBpp), H. pylori strain SS1 (domain or fragment)",stoichiometry N,[3],2
